One assay concerns A. niger. Nature of the assay: Efficacy of BA, THC and essential oils in anionic emulsion against A. niger, Example 2. To be noted: essential oil 0.3% w/w alone or with BA 0.5% w/w and THC 0.05% w/w, incubation 48 hours, average of nine samples. It is filed as cell-based, Aspergillus niger.
A further assay deals with P. aeruginosa. The assay can be described thus: Antimicrobial activity of test formulations in cationic or anionic emulsion, Example 3. Type of assay: cell-based, Pseudomonas aeruginosa. To be noted: incubated 48 hours. The method, then: (§1) A stock solution was prepared containing the active ingredients and was then diluted in either a cationic or anionic test formulation, where the cationic formulation tested was Formulation A described in Example 1 and the anionic formulation tested was Formulation B described in Example 1: […]
(§2) Test formulations comprising the synthetic preservative methylparaben, at a concentration of 0.3% w/w, was used as a positive control.
(§3) The following method of testing for antimicrobial activity was used. 25 gms of emulsion containing 1-1.2% of various preservative was prepared. 0.9 gm aliquots of preservative containing emulsions were dispensed into several culture tubes. These were divided into various groups and inoculated with 0.1 ml of the test organism (bacteria, Candida albicans (10^8 cfu/ml) or Aspergillus niger (10^7 cfu/ml)). After mixing, the tubes were incubated for 48 hours for bacteria and for 7 days days for either C. albicans or A. niger. The cultures were then diluted serially with Drug Neutralizing Fluid (DNF) and 0.5 ml aliquots were plated on TSA and incubated for 24-48 hours (bacteria and C. albicans were incubated at 37° C. and A. niger at 30° C.). […] The log 10 reduction in colony counts of the test group from the colony counts of control group was determined.

A further assay concerns Candida albicans. The description is as above. Type of assay: cell-based. The settings on record: incubated 7 days. The method, then: as §1, §2
(§4) The following method of testing for antimicrobial activity was used. 25 gms of emulsion containing 1-1.2% of various preservative was prepared. 0.9 gm aliquots of preservative containing emulsions were dispensed into several culture tubes. These were divided into various groups and inoculated with 0.1 ml of the test organism (bacteria, Candida albicans (10^8 cfu/ml) or Aspergillus niger (10^7 cfu/ml)). After mixing, the tubes were incubated for 48 hours for bacteria and for 7 days days for either C. albicans or A. niger. The cultures were then diluted serially with Drug Neutralizing Fluid (DNF) and 0.5 ml aliquots were plated on TSA and incubated for 24-48 hours (bacteria and C. albicans were incubated at 37° C. and A. niger at 30° C.). In the control group, the emulsion base without the preservatives was inoculated with each organism and processed similarly. The log 10 reduction in colony counts of the test group from the colony counts of control group was determined.

Another assay deals with Aspergillus niger. The assay is described as above. The settings on record: incubated 7 days. Type of assay: cell-based. Here is the method: as §1, §2, §4
The next assay concerns S. aureus. The assay is described as above. Type of assay: cell-based, Staphylococcus aureus. The settings on record: incubated 48 hours. Here is the method: as §1, §2, §3
[1] abbreviates: anionic emulsion (Formulation B).
Where [2] appears, read: cationic emulsion (Formulation A).

Protocol for A. niger: 0.9 gm aliquots of preservative containing emulsions were dispensed into several culture tubes. These were divided into various groups and inoculated with 0.1 ml of the test organism (bacteria, Candida albicans (10^8 cfu/ml) or Aspergillus niger (10^7 cfu/ml). After mixing, the tubes were incubated for 48 hours for bacteria t days for either C. albicans or A. niger. The cultures were then diluted serially with Drug Neutralizing Fluid (DNF) and 0.5 ml aliquots were plated on TSA and incubated for 24-48 hours (bacteria and C. albicans were incubated at 37° C. and A. niger at 30° C.). In the control group, the emulsion base without the preservatives was inoculated with each organism and processed similarly.
Various essential oils were used along with BA and THC and incorporated in anionic emulsion and tested against A. niger.

Regarding `Cc1ccc(C(C)C)c(O)c1` [TH, Thymol], the “log10 reduction in cfu, A. niger” value in the assay with A. niger turned out to be 0.8 log10.
Regarding `COC(=O)c1ccc(O)cc1` [methyl paraben, methylparaben], the entries for the “log reduction from control growth, P. aeruginosa” value with P. aeruginosa (setting [1]) and with P. aeruginosa (setting [2]) were 0.11 log10 and 2.1 log10, respectively. Also, the “log reduction from control growth, C. albicans” value in the assay on Candida albicans (setting [1]) is recorded as 4.31 log10; in the assay with Candida albicans (setting [2]), 4.25 log10. The “log reduction from control growth, A. niger” value is given as 2.88 log10 with Aspergillus niger (setting [1]) and 4.16 log10 in the assay on Aspergillus niger (setting [2]). Moreover, the “log reduction from control growth, S. aureus” value with S. aureus (setting [1]) was 0.12 log10; in the assay on S. aureus (setting [2]), 1.9 log10.

The values above are taken from patent US9497975B2, “Broad spectrum natural preservative composition” (The Trustees of Columbia University in the City of New York, priority 2011, dated 2016).
